Our source for the relative viability values is the supplement of paper PMC10307832.

Experiment in all cases: relative viability (nuclei count vs DMSO), 5 days (fraction); higher = more cells survive
Compound in assay [1]: COc1cc2nc(N3CCCN(C)CC3)nc(NC3CCN(Cc4ccccc4)CC3)c2cc1OC + COc1cccc2cc(-c3nc([C@H]4CC[C@H](C(=O)O)CC4)n4ncnc(N)c34)[nH]c12 [OSI-027] (partner 0.5 µM)
Put shortly:
(§1)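 Relative viability was taken as the ratio of nuclei in treated wells to nuclei in vehicle wells. Lung cancer cell lines in 1536-well plates received compounds by pin tool one day after seeding, either one drug alone or a fixed anchor-drug dose plus five library-drug doses (not always all listed) in √10 steps. Nuclei were counted on 4× images after 5 days of treatment, and values are medians of duplicate plates.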

Compound in the assay “AZD6482 + Bortezomib”: Cc1cc([C@@H](C)Nc2ccccc2C(=O)O)c2nc(N3CCOCC3)cc(=O)n2c1 [AZD6482] + CC(C)C[C@H](NC(=O)[C@H](Cc1ccccc1)NC(=O)c1cnccn1)B(O)O [Bortezomib] (partner 0.002 µM)
An outline of the steps:
as §1

Compound in the assay “AZD6482 + Tozasertib”: Cc1cc([C@@H](C)Nc2ccccc2C(=O)O)c2nc(N3CCOCC3)cc(=O)n2c1 [AZD6482] + Cc1cc(Nc2cc(N3CCN(C)CC3)nc(Sc3ccc(NC(=O)C4CC4)cc3)n2)n[nH]1 [Tozasertib] (partner 0.1 µM)
An outline of the steps:
as §1

Compound in assay [2]: COc1cc2nc(N3CCCN(C)CC3)nc(NC3CCN(Cc4ccccc4)CC3)c2cc1OC + CC1(C)CCC(c2ccc(Cl)cc2)=C(CN2CCN(c3ccc(C(=O)NS(=O)(=O)c4ccc(N[C@H](CCN5CCOCC5)CSc5ccccc5)c(S(=O)(=O)C(F)(F)F)c4)cc3)CC2)C1 [Navitoclax] (partner 0.5 µM)
Put shortly:
as §1

Regarding UMC-11, the relative viability in assay [1] (first compound 0.2 µM) amounted to 0.534; in assay [1] (first compound 0.6325 µM), 0.461; in assay [1] (first compound 2 µM), 0.398; in assay [1] (first compound 6.325 µM), 0.284; in the assay with AZD6482 + Bortezomib (first compound 0.08 µM), 0.836; with AZD6482 + Bortezomib (first compound 0.253 µM) it was 0.628. Besides, the relative viability came to 0.862 with AZD6482 + Bortezomib (first compound 0.8 µM); 0.627 with AZD6482 + Bortezomib (first compound 2.53 µM); 0.75 in the assay with AZD6482 + Bortezomib (first compound 8 µM); 0.19 with AZD6482 + Tozasertib (first compound 0.08 µM); 0.209 with AZD6482 + Tozasertib (first compound 0.253 µM); 0.186 with AZD6482 + Tozasertib (first compound 0.8 µM). The relative viability came to 0.23 in the assay with AZD6482 + Tozasertib (first compound 2.53 µM); 0.201 in the assay with AZD6482 + Tozasertib (first compound 8 µM); 0.315 in assay [2] (first compound 0.2 µM); 0.333 in assay [2] (first compound 0.6325 µM); 0.317 in assay [2] (first compound 2 µM); 0.254 in assay [2] (first compound 6.325 µM).
